Data: patent US7638284B2, “Immunoglobulin A inducing protein and uses therefor” (The Curators of the University of Missouri, priority 2000, dated 2009)
“Also recorded” adds a separate entry of the source.

Tests used:
sIgD+ B cells = assay: Bioassay for IGIP activity on naive human B cells (CD40L, IL-2, with or without IL-10; ELISA day 14); type: cell-based
Experimental: Total PBMC's were isolated from normal healthy donors via gradient centrifugation and labeled with biotinylated mouse monoclonal antibody (mAB) to human IgD. Pure sIgD^+ B cells were then isolated with Streptavidin-coated Microbeads using an AutoMACS magnetic cell sorter.
Enriched sIgD^+ B cells were cultured in RPM1 1640 (supplemented with 10% FBS, 2 mM L-glutamine, 100 U/ml penicillin and 100 μg/ml streptomycin) at 0.8-1.0×10^5 cells/well in 96-well plates. B cells were co-cultured at a 4:1 ratio with mitomycin C treated DAP3 cells stably transfected with CD40L and 50 ng/ml IL-2, with or without 50 ng/ml IL-10. Cell cultures were then stimulated with 0.1, 1.0 or 10 ng/ml IGIP, 1.0 ng/ml TGF-β, or left unstimulated. Culture supernatants were assayed for secreted immunoglobulins (IgM, IgG, and IgA) by ELISA on day 14.

peripheral blood B cells = assay: Bovine B cell bioassay (CD40L-DAP3 cells + IL-2, 7 days) with ELISA for secreted IgA, IgM, IgG; type: cell-based
Experimental: Peripheral blood mononuclear cells (PBMCs) were isolated from the peripheral blood of 6-12 month old Holstein or Angus heifers or steers by incubating 30 ml of red cell lysis buffer (0.15 NH4Cl, 10 mM KHCO3, 1 mM EDTA, H2O) with 20 ml of blood for 20 minutes at room temperature. During this incubation, carbonyl iron (0.1 μg/ml) was added to the blood mixture for 20 minutes and then exposed to a magnetic field for 2 minutes to remove phagocytic cells. Following incubation, the cells were washed 3 times with Hank's buffered salt solution (HBSS). B lymphocytes were enriched by panning in the presence of 3% bovine serum albumin (BSA, Fraction V, Sigma, St. Louis, Mo.) in HBSS as described in Severson et al. (1987). Briefly, PBMCs were resuspended at a concentration of 1×10^7 cells/ml in panning solution (3% BSA, 10 mM Tris, 50 μg/ml gentamicin, 0.0025 mM CaCl2, and 0.002 mM MgCl2 in HBSS) and allowed to adhere to plastic tissue culture plates for 1 hour. Non-adherent cells were removed by washing twice with HBSS and adherent cells (enriched B cells) were harvested by vigorous pipetting. 1×10^5 B cells and 2×10^4 mitomycin C treated CD40L-DAP3 transfected cells were cultured for 7 days in 96-well plates in 2001 μl final volume complete medium (RPMI 1640) and 10% immunoglobulin free normal horse serum with 1 ng/ml recombinant huIL-2 (Peppro Tech Inc., Rocky Hill, N.J.) and 10% culture supernatant from cells transfected with library plasmids. Where indicated, pre-committed B cells and residual T cells were depleted by incubating panned B cells for 30 minutes on ice with 30 μl each of mouse anti-bovine IGA (Serotec, Raleigh, N.C.), mouse anti-bovine IgG1 (Serotec), mouse anti-bovine IgG2 (Serotec), and MM1A (anti-CD3 antibody, VMRD, Pullman, Wash.). The cells were washed 3 times with HBSS and sheep anti-mouse IgG Dynabeads (Dynal, Oslow, Norway) were added according to the manufacturer's instructions. The B cells were then placed in a magnetic field and the non-adherent cells removed. These cells were next incubated on ice for 30 minutes with biotinylated goat anti-bovine IgM (Kirkegard and Perry (KPL), Gaithersburg, Md.), washed 3 times and streptavidin beads (Dynal) were added according to the manufacturer's instructions. The cells were placed on a magnetic field and the adherent cells (IgM^+ B cells) were harvested. All bioassays were performed in triplicate in 96-well Corning flat bottom plates.
Other reagents used in these studies were goat anti-bovine IgM (5 μg/ml, KPL) and porcine TGF-β (1 ng/ml, R & D Systems, Minneapolis, Minn.) that had been acid-activated according to the manufacturer's instructions. […]

IGIP mRNA = assay: Taqman RT-PCR relative quantification of steady state IGIP mRNA in PMA stimulated cell subsets; type: cell-based, bovine; conditions: 5 ng/ml PMA for 18 hours
Source text: Selective IgA deficiency (IgAD) is the most common primary immunodeficiency. […] To determine if abnormalities of IGIP production, function or cellular responsiveness to IGIP are altered in all or a subpopulation of patients with IgAD, a sampling approach is used to screen as many clinical and immunological types of adult subjects as possible for IGIP abnormalities. The relative contribution of PBMC-derived populations can be ranked based on quantitative PCR assessment of resting versus phorbol ester stimulated bovine cells; DC>B cells>T cells>monocytes (see Table VI below).

[1] = in the presence of IL-10, CD40L + IL-2, IGIP 0.1 to 10 ng/ml, TGF-β 1 ng/ml, 14 days

## IGIP: human homolog of IGIP, 0.1 to 10 ng/ml on naive human IgD+ B cells (Example III) (MKKRSVSGCNITIFAVMFSHLSAGKSPCGNQANVLCISRLEFVQYQS)
sIgD+ B cells; IL-10, CD40L dependent, B-cell-receptor independent
  IgA production by naive IgD+ B cells (in words): enhanced IgA production
sIgD+ B cells; in the presence of IL-10
  number of IgA producing cells compared with TGF-β: greater number of IgA producing cells
sIgD+ B cells; [1]
  IgA production, level relative to TGF-β: 4-6 fold
  IgG production, level relative to TGF-β: 4-6 fold
  IgM production, level relative to TGF-β: 4-6 fold

## TGF-β: porcine TGF-β (1 ng/ml, R & D Systems), acid-activated
Peripheral blood B cells; B cells stimulated via CD40L + IL-2 (CD40 alone)
  effect on IgA production (in words): less IgA production; also recorded: decreased IgA production
Peripheral blood B cells; B cells stimulated via CD40 and anti-IgM (BCR)
  effect on IgA production (in words): induced IgA production
Peripheral blood B cells; Table IV experiment 2, dual stimulation CD40 and BCR
  IgA production over that of B cells stimulated via CD40L + anti-IgM + IL-2 alone: 10 fold

## CCCCCCCCCCCCCC(=O)O[C@@H]1[C@@H](C)[C@@]2(O)[C@@H](C=C(CO)C[C@]3(O)C(=O)C(C)=C[C@@H]23)[C@@H]2C(C)(C)[C@]12OC(C)=O [PMA, phorbol myristic acetate]
IGIP mRNA; CD3+ cells
  IGIP mRNA fold increase, stimulated vs unstimulated: 2.03 fold
  IGIP mRNA, relative quantification, stimulated cells: 4.79 × 10^−5
IGIP mRNA; CD14+ cells
  IGIP mRNA fold increase, stimulated vs unstimulated: 0.64 fold
  IGIP mRNA, relative quantification, stimulated cells: 1.00 × 10^−5
IGIP mRNA; CD21+ cells
  IGIP mRNA fold increase, stimulated vs unstimulated: 7.6 fold
  IGIP mRNA, relative quantification, stimulated cells: 3.65 × 10^−4
IGIP mRNA; DC
  IGIP mRNA fold increase, stimulated vs unstimulated: 7205 fold
  IGIP mRNA, relative quantification, stimulated cells: 0.263
